Measurements taken from article PMC9516332 (Frontiers in Oncology, 2022).
Where two headings read alike, the source gives them in different places.

Experiments:
[1] = target: panel of 255 wild-type kinases (Homo sapiens, UniProt Q9Y6M4); test: Kinase panel profiling at 1 µmol/L (MSA or IMAP), percentage inhibition; type: biochemical; details: kinase CK1γ3; 1 µmol/L single concentration; read-out: %-inhibition at 1 µmol/L, CK1γ3
[2] = target: panel of 255 wild-type kinases (Homo sapiens, UniProt P29317); test: as above; type: biochemical; details: kinase EPHA2; 1 µmol/L single concentration; read-out: %-inhibition at 1 µmol/L, EPHA2
[3] = test system: AP-1060 (ETV6-NTRK3); test: Cell viability assay; details: read-out: IC50 in cell proliferation assay
[4] = test system: 134 cancer cell lines; test: Cell viability assay (ATPlite, 72 hours), IC50 on cancer cell line panel

Compound `Cn1cc(-c2cc3c(N4CCN(c5ncc([C@@](C)(N)c6ccc(F)cc6)cn5)CC4)ncnn3c2)cn1` [avapritinib] has an inhibition at 1 µM [1] of 10%, an inhibition at 1 µM [2] of 60% and an IC50 [3] of 3.46 µM. For the same compound, the IC50 ([4]; HEC-6, read-out: IC50 in cell proliferation assay) was 20.9 µM, the IC50 ([4]; Homo sapiens, 769-P, read-out: IC50 in cell proliferation assay) was 3 µM and the IC50 ([4]; Homo sapiens, 786-0, read-out: IC50 in cell proliferation assay) was 11.8 µM. For the same compound, the IC50 ([4]; Homo sapiens, A 172, read-out: IC50 in cell proliferation assay) was 5.91 µM, the IC50 ([4]; Homo sapiens, A204, read-out: IC50 in cell proliferation assay) was 0.171 µM and the IC50 ([4]; Homo sapiens, A498, read-out: IC50 in cell proliferation assay) was 15.4 µM. The IC50 ([4]; Homo sapiens, A549, read-out: IC50 in cell proliferation assay) was 20.5 µM, the IC50 ([4]; Homo sapiens, A704, read-out: IC50 in cell proliferation assay) was 22.7 µM and the IC50 ([4]; Homo sapiens, A-375, read-out: IC50 in cell proliferation assay) was 17.8 µM. It also gave an IC50 ([4]; Homo sapiens, A-427, read-out: IC50 in cell proliferation assay) of 8.02 µM, an IC50 ([4]; Homo sapiens, ACHN, read-out: IC50 in cell proliferation assay) of 14.8 µM and an IC50 ([4]; Homo sapiens, AN3-CA, read-out: IC50 in cell proliferation assay) of 18.1 µM. The IC50 ([4]; Homo sapiens, ASPC1, read-out: IC50 in cell proliferation assay) was > 31.6 µM, the IC50 ([4]; Homo sapiens, AU565, read-out: IC50 in cell proliferation assay) was 10.1 µM and the IC50 ([4]; Homo sapiens, BT-20, read-out: IC50 in cell proliferation assay) was 27.7 µM. The IC50 ([4]; Homo sapiens, BT-474, read-out: IC50 in cell proliferation assay) was 7.71 µM, the IC50 ([4]; Homo sapiens, BT-549, read-out: IC50 in cell proliferation assay) was 5.18 µM and the IC50 ([4]; Homo sapiens, BXPC-3, read-out: IC50 in cell proliferation assay) was 0.292 µM. The IC50 ([4]; Homo sapiens, C-33-A, read-out: IC50 in cell proliferation assay) was 4.64 µM, the IC50 ([4]; Homo sapiens, CAL-27, read-out: IC50 in cell proliferation assay) was 11 µM and the IC50 ([4]; Homo sapiens, CCF-STTG1, read-out: IC50 in cell proliferation assay) was 5.69 µM. It also gave an IC50 ([4]; Homo sapiens, CCRF-CEM, read-out: IC50 in cell proliferation assay) of 8.33 µM, an IC50 ([4]; Homo sapiens, COLO 205, read-out: IC50 in cell proliferation assay) of 10.7 µM and an IC50 ([4]; Homo sapiens, COLO-829, read-out: IC50 in cell proliferation assay) of 10.1 µM. The IC50 ([4]; Homo sapiens, DLD-1, read-out: IC50 in cell proliferation assay) was 15.2 µM, the IC50 ([4]; Homo sapiens, DU-145, read-out: IC50 in cell proliferation assay) was 9.13 µM and the IC50 ([4]; Homo sapiens, DU-4475, read-out: IC50 in cell proliferation assay) was 7.09 µM. For the same compound, the IC50 ([4]; Homo sapiens, Daoy, read-out: IC50 in cell proliferation assay) was 27.8 µM, the IC50 ([4]; Homo sapiens, DoTc2-4510, read-out: IC50 in cell proliferation assay) was 16.3 µM and the IC50 ([4]; Homo sapiens, EOL1, read-out: IC50 in cell proliferation assay) was 0.000567 µM. It also gave an IC50 ([4]; Homo sapiens, FaDu, read-out: IC50 in cell proliferation assay) of 9.3 µM, an IC50 ([4]; Homo sapiens, G-361, read-out: IC50 in cell proliferation assay) of 9.28 µM and an IC50 ([4]; Homo sapiens, HCC827, read-out: IC50 in cell proliferation assay) of 14 µM. The IC50 ([4]; Homo sapiens, HCC4006, read-out: IC50 in cell proliferation assay) was 8.01 µM, the IC50 ([4]; Homo sapiens, HCT-15, read-out: IC50 in cell proliferation assay) was 6.36 µM and the IC50 ([4]; Homo sapiens, HCT-116, read-out: IC50 in cell proliferation assay) was 8.76 µM. The IC50 ([4]; Homo sapiens, HEC-1, read-out: IC50 in cell proliferation assay) was 17 µM, the IC50 ([4]; Homo sapiens, HEC-1B, read-out: IC50 in cell proliferation assay) was 8.74 µM and the IC50 ([4]; Homo sapiens, HL-60, read-out: IC50 in cell proliferation assay) was 5.2 µM. For the same compound, the IC50 ([4]; Homo sapiens, HT, read-out: IC50 in cell proliferation assay) was 22.9 µM, the IC50 ([4]; Homo sapiens, HT-1080, read-out: IC50 in cell proliferation assay) was 9.14 µM and the IC50 ([4]; Homo sapiens, Hs746T, read-out: IC50 in cell proliferation assay) was 1.81 µM. It also gave an IC50 ([4]; Homo sapiens, Hs-578T, read-out: IC50 in cell proliferation assay) of 16.8 µM, an IC50 ([4]; Homo sapiens, HuTu80, read-out: IC50 in cell proliferation assay) of 5.13 µM and an IC50 ([4]; Homo sapiens, J82, read-out: IC50 in cell proliferation assay) of 24.4 µM. For the same compound, the IC50 ([4]; Homo sapiens, Jurkat E6.1, read-out: IC50 in cell proliferation assay) was 4.07 µM, the IC50 ([4]; Homo sapiens, K562, read-out: IC50 in cell proliferation assay) was 6.03 µM and the IC50 ([4]; Homo sapiens, KATO III, read-out: IC50 in cell proliferation assay) was 6.66 µM. For the same compound, the IC50 ([4]; Homo sapiens, KG-1, read-out: IC50 in cell proliferation assay) was 1.92 µM, the IC50 ([4]; Homo sapiens, KLE, read-out: IC50 in cell proliferation assay) was 5.61 µM and the IC50 ([4]; Homo sapiens, KMS-11, read-out: IC50 in cell proliferation assay) was 6.59 µM. The IC50 ([4]; Homo sapiens, KU812, read-out: IC50 in cell proliferation assay) was 3.11 µM, the IC50 ([4]; Homo sapiens, Kasumi 1, read-out: IC50 in cell proliferation assay) was 0.075 µM and the IC50 ([4]; Homo sapiens, LC-2-ad, read-out: IC50 in cell proliferation assay) was 4.91 µM. For the same compound, the IC50 ([4]; Homo sapiens, LNCaP-Clone-FGC, read-out: IC50 in cell proliferation assay) was 16 µM, the IC50 ([4]; Homo sapiens, LS174T, read-out: IC50 in cell proliferation assay) was 6.55 µM and the IC50 ([4]; Homo sapiens, LS-411N, read-out: IC50 in cell proliferation assay) was 10.8 µM. It also gave an IC50 ([4]; Homo sapiens, LoVo, read-out: IC50 in cell proliferation assay) of 6.42 µM, an IC50 ([4]; Homo sapiens, MCF7, read-out: IC50 in cell proliferation assay) of 17.3 µM and an IC50 ([4]; Homo sapiens, MDA-MB-231, read-out: IC50 in cell proliferation assay) of 8.5 µM. For the same compound, the IC50 ([4]; Homo sapiens, MDA-MB-453, read-out: IC50 in cell proliferation assay) was 1.08 µM, the IC50 ([4]; Homo sapiens, MDA-MB-468, read-out: IC50 in cell proliferation assay) was 12.6 µM and the IC50 ([4]; Homo sapiens, MG-63, read-out: IC50 in cell proliferation assay) was 11.1 µM. For the same compound, the IC50 ([4]; Homo sapiens, MIA PaCa-2, read-out: IC50 in cell proliferation assay) was 11 µM, the IC50 ([4]; Homo sapiens, MKN-45, read-out: IC50 in cell proliferation assay) was 5.03 µM and the IC50 ([4]; Homo sapiens, MOLM-13, read-out: IC50 in cell proliferation assay) was 0.465 µM. For the same compound, the IC50 ([4]; Homo sapiens, MOLT-4, read-out: IC50 in cell proliferation assay) was 6.63 µM, the IC50 ([4]; Homo sapiens, MV4-11, read-out: IC50 in cell proliferation assay) was 0.47 µM and the IC50 ([4]; Homo sapiens, MeWo, read-out: IC50 in cell proliferation assay) was > 31.6 µM. The IC50 ([4]; Homo sapiens, NCCIT, read-out: IC50 in cell proliferation assay) was 3.52 µM, the IC50 ([4]; Homo sapiens, NCI-H82, read-out: IC50 in cell proliferation assay) was 2.42 µM and the IC50 ([4]; Homo sapiens, NCI-H460, read-out: IC50 in cell proliferation assay) was 16 µM. For the same compound, the IC50 ([4]; Homo sapiens, NCI-H661, read-out: IC50 in cell proliferation assay) was 1.66 µM, the IC50 ([4]; Homo sapiens, NCI-H716, read-out: IC50 in cell proliferation assay) was 6.81 µM and the IC50 ([4]; Homo sapiens, NCI-H1650, read-out: IC50 in cell proliferation assay) was 19.6 µM. It also gave an IC50 ([4]; Homo sapiens, NCI-H1975, read-out: IC50 in cell proliferation assay) of 11.1 µM, an IC50 ([4]; Homo sapiens, NCI-H2228, read-out: IC50 in cell proliferation assay) of 9.99 µM and an IC50 ([4]; Homo sapiens, OVCAR-3, read-out: IC50 in cell proliferation assay) of 22.1 µM. The IC50 ([4]; Homo sapiens, PFSK-1, read-out: IC50 in cell proliferation assay) was 13.8 µM, the IC50 ([4]; Homo sapiens, RL95-2, read-out: IC50 in cell proliferation assay) was 28.3 µM and the IC50 ([4]; Homo sapiens, RPMI-7951, read-out: IC50 in cell proliferation assay) was 13.5 µM. It also gave an IC50 ([4]; Homo sapiens, RS4-11, read-out: IC50 in cell proliferation assay) of 21 µM, an IC50 ([4]; Homo sapiens, Rec1, read-out: IC50 in cell proliferation assay) of 28.9 µM and an IC50 ([4]; Homo sapiens, SHP77, read-out: IC50 in cell proliferation assay) of 2.22 µM. For the same compound, the IC50 ([4]; Homo sapiens, SK-BR-3, read-out: IC50 in cell proliferation assay) was 8.31 µM, the IC50 ([4]; Homo sapiens, SK-N-AS, read-out: IC50 in cell proliferation assay) was 20.8 µM and the IC50 ([4]; Homo sapiens, SK-N-FI, read-out: IC50 in cell proliferation assay) was > 31.6 µM. For the same compound, the IC50 ([4]; Homo sapiens, SK-N-MC, read-out: IC50 in cell proliferation assay) was 6.43 µM, the IC50 ([4]; Homo sapiens, SK-N-SH, read-out: IC50 in cell proliferation assay) was 7.42 µM and the IC50 ([4]; Homo sapiens, SNU-5, read-out: IC50 in cell proliferation assay) was 9.36 µM. For the same compound, the IC50 ([4]; Homo sapiens, SNU-16, read-out: IC50 in cell proliferation assay) was 2.03 µM, the IC50 ([4]; Homo sapiens, SNU-C2B, read-out: IC50 in cell proliferation assay) was 10.5 µM and the IC50 ([4]; Homo sapiens, SU-DHL-1, read-out: IC50 in cell proliferation assay) was 2.31 µM. The IC50 ([4]; Homo sapiens, SU-DHL-6, read-out: IC50 in cell proliferation assay) was 3.18 µM, the IC50 ([4]; Homo sapiens, SUP-T1, read-out: IC50 in cell proliferation assay) was 9.11 µM and the IC50 ([4]; Homo sapiens, SW48, read-out: IC50 in cell proliferation assay) was 5.58 µM. It also gave an IC50 ([4]; Homo sapiens, SW480, read-out: IC50 in cell proliferation assay) of 25.4 µM, an IC50 ([4]; Homo sapiens, SW626, read-out: IC50 in cell proliferation assay) of 20.2 µM and an IC50 ([4]; Homo sapiens, SW780, read-out: IC50 in cell proliferation assay) of 19.3 µM. For the same compound, the IC50 ([4]; Homo sapiens, SW837, read-out: IC50 in cell proliferation assay) was > 31.6 µM, the IC50 ([4]; Homo sapiens, SW872, read-out: IC50 in cell proliferation assay) was 6.31 µM and the IC50 ([4]; Homo sapiens, SW900, read-out: IC50 in cell proliferation assay) was 21.9 µM. For the same compound, the IC50 ([4]; Homo sapiens, SW948, read-out: IC50 in cell proliferation assay) was 14 µM, the IC50 ([4]; Homo sapiens, SW982, read-out: IC50 in cell proliferation assay) was 10.8 µM and the IC50 ([4]; Homo sapiens, SW-620, read-out: IC50 in cell proliferation assay) was > 31.6 µM. For the same compound, the IC50 ([4]; Homo sapiens, T98G, read-out: IC50 in cell proliferation assay) was 0.372 µM, the IC50 ([4]; Homo sapiens, TCC-SUP, read-out: IC50 in cell proliferation assay) was 2.7 µM and the IC50 ([4]; Homo sapiens, THP-1, read-out: IC50 in cell proliferation assay) was 5.42 µM. The IC50 ([4]; Homo sapiens, U2OS, read-out: IC50 in cell proliferation assay) was 16.3 µM, the IC50 ([4]; Homo sapiens, U-87 MG, read-out: IC50 in cell proliferation assay) was 22.9 µM and the IC50 ([4]; Homo sapiens, U-118-MG, read-out: IC50 in cell proliferation assay) was 1.1 µM. For the same compound, the IC50 ([4]; Homo sapiens, UMUC3, read-out: IC50 in cell proliferation assay) was 5.49 µM, the IC50 ([4]; Hs766T, read-out: IC50 in cell proliferation assay) was > 31.6 µM and the IC50 ([4]; L-82, read-out: IC50 in cell proliferation assay) was 8.39 µM. For the same compound, the IC50 ([4]; Rh30, read-out: IC50 in cell proliferation assay) was 14.9 µM.
